Drawing on PMC11995724, “Antibiotic target discovery by integrated phenotypic and activity-based profiling of electrophilic fragments” (Cell chemical biology, 2025), this text covers viability for 49 molecules.

Structures can show the parent of a compound that is named as a salt.

This data set can be described thus: in vitro. To be noted: human, hek293t cells.
Broadly, the viability is a read-out of living cells in per cent, often relative to untreated cells. `Cn1c(N)c(C(=O)CCl)c(=O)n(C)c1=O` [10-E14, 6-amino-5-(2-chloroacetyl)-1,3-dimethyl-1,2,3,4-tetrahydropyrimidine-2,4-dione]: the viability at 48 h, 25 µM came out at 89.9%.
On to `Cn1cc(S(=O)(=O)N2CCOCC2)cc1C(=O)NC(=O)CCl` [4-P20, N-(2-chloroacetyl)-1-methyl-4-(morpholine-4-sulfonyl)-1H-pyrrole-2-carboxamide], for which the viability at 48 h, 25 µM stood at 106%.
For the molecule `Cc1nnnn1-c1ccc(F)c(NC(=O)CCl)c1` [6-E13, 2-chloro-N-[2-fluoro-5-(5-methyl-1H-1,2,3,4-tetrazol-1-yl)phenyl]acetamide], the viability at 48 h, 25 µM is 1.24%.
Regarding `C=CC(=O)N1CCOCC1c1ncnn1Cc1ccccc1` (stereo not shown) [1-L12, 1-[3-(1-benzyl-1H-1,2,4-triazol-5-yl)morpholin-4-yl]prop-2-en-1-one], the viability at 48 h, 25 µM was found to be 63.7%.
As for `CCCn1c(N)c(C(=O)CCl)c(=O)[nH]c1=O` [10-L10, 6-amino-5-(2-chloroacetyl)-1-propyl-1,2,3,4-tetrahydropyrimidine-2,4-dione], the viability at 48 h, 25 µM is 97.8%.
With `COc1ccc(S(=O)(=O)N2CCCCC2)cc1NC(=O)CCl` [6-G13, 2-chloro-N-[2-methoxy-5-(piperidine-1-sulfonyl)phenyl]acetamide], the viability at 48 h, 25 µM is 1.34%.
Turning to `O=C(CCl)Nc1ccc(C(=O)O)cc1[N+](=O)[O-]` [4-C21, 4-(2-chloroacetamido)-3-nitrobenzoic acid], the viability at 48 h, 25 µM was determined as 63.3%.
In the case of `COc1ccc(OC)c(-c2csc(NC(=O)CCl)n2)c1` [4-H12, 2-chloro-N-[4-(2,5-dimethoxyphenyl)-1,3-thiazol-2-yl]acetamide], the viability at 48 h, 25 µM came to 1.27%.
With `O=C1C=CC(=O)N1c1ccccc1Sc1ccccc1` [10-K12, 1-[2-(phenylsulfanyl)phenyl]-2,5-dihydro-1H-pyrrole-2,5-dione], the viability at 48 h, 25 µM came to 63%.
For the molecule `Cc1cc(C(=O)CCl)c(C)n1Cc1ccc(F)cc1` [10-N17, 2-chloro-1-{1-[(4-fluorophenyl)methyl]-2,5-dimethyl-1H-pyrrol-3-yl}ethan-1-one], the viability at 48 h, 25 µM was 6.45%.
Take `CC1CCCCC1NC(=O)C(C#N)=Cc1ccc(N2CCOCC2)cc1` (stereo not shown) [8-I06, 2-cyano-N-(2-methylcyclohexyl)-3-[4-(morpholin-4-yl)phenyl]prop-2-enamide]: the viability at 48 h, 25 µM is 52.8%.
`C=CC(=O)N1CCC(C(=O)Nc2ccc(CC)cc2)CC1` [3-J12, N-(4-ethylphenyl)-1-(prop-2-enoyl)piperidine-4-carboxamide]: the viability at 48 h, 25 µM came to 85.6%.
Turning to `O=C(CCl)c1c[nH]c2ccccc12` [10-B05, 2-chloro-1-(1H-indol-3-yl)ethan-1-one], the viability at 48 h, 25 µM came out at 111%.
Under `COc1ccc(NC(=O)C(C#N)=Cc2cccc(O)c2)cc1OC` [8-F09, 2-cyano-N-(3,4-dimethoxyphenyl)-3-(3-hydroxyphenyl)prop-2-enamide] stands 86.1%; under `CC(Cl)C(=O)N1CCNC(=O)C1c1c(F)cccc1Cl` (stereo not shown) [6-D07, 3-(2-chloro-6-fluorophenyl)-4-(2-chloropropanoyl)piperazin-2-one], 107%.
As for `CC(Cl)C(=O)N1CCc2oc(-c3ccccc3)cc2C1` (stereo not shown) [6-B21, 2-chloro-1-{2-phenyl-4H,5H,6H,7H-furo[3,2-c]pyridin-5-yl}propan-1-one], the viability at 48 h, 25 µM amounted to 67.2%.
For the molecule `C=CC(=O)N(Cc1cccc(F)c1F)C1CCCC(F)(F)C1` (stereo not shown) [1-N13, N-(3,3-difluorocyclohexyl)-N-[(2,3-difluorophenyl)methyl]prop-2-enamide], the viability at 48 h, 25 µM turned out to be 136%.
Regarding `O=C(CCl)NC(c1ccccc1)c1cccs1` (stereo not shown) [4-J14, 2-chloro-N-[phenyl(thiophen-2-yl)methyl]acetamide], the viability at 48 h, 25 µM is 1.95%.
`O=C(CCl)NC1CN(C(=O)C2CC2)C1` [6-P22, 2-chloro-N-(1-cyclopropanecarbonylazetidin-3-yl)acetamide]: the viability at 48 h, 25 µM turned out to be 112%.
In the case of `CC(Cl)C(=O)N1CCC(Oc2cnc3ccccc3n2)CC1` (stereo not shown) [7-I18, 2-chloro-1-[4-(quinoxalin-2-yloxy)piperidin-1-yl]propan-1-one], the viability at 48 h, 25 µM stood at 68.7%.
Turning to `C=CC(=O)N(CC)CC(=O)N1CCNC(=O)C1c1cccs1` (stereo not shown) [3-G07, N-ethyl-N-{2-oxo-2-[3-oxo-2-(thiophen-2-yl)piperazin-1-yl]ethyl}prop-2-enamide], the viability at 48 h, 25 µM was 40%.
Regarding `O=C(CCl)N1CCN(CC=Cc2ccccc2)CC1` [4-F16, 2-chloro-1-[4-(3-phenylprop-2-en-1-yl)piperazin-1-yl]ethan-1-one hydrochloride], the viability at 48 h, 25 µM amounted to 0.223%.
Regarding `N#CC(=Cc1ccc2c(c1)OCCO2)C(=O)Nc1ccc(F)cc1` [9-K20, 2-cyano-3-(2,3-dihydro-1,4-benzodioxin-6-yl)-N-(4-fluorophenyl)prop-2-enamide], the viability at 48 h, 25 µM was 114%.
As to `O=C(CCl)Nc1cc(Cl)ccc1Oc1ccccc1` [5-G19, 2-chloro-N-(5-chloro-2-phenoxyphenyl)acetamide], the viability at 48 h, 25 µM was 0.676%.
Take `O=S(=O)(CC=C(Cl)Cl)N1CCSSCC1` [10-P19, 5-(3,3-dichloroprop-2-ene-1-sulfonyl)-1,2,5-dithiazepane]: the viability at 48 h, 25 µM came to 127%.
Regarding `CC(Cl)C(=O)N1CCC(c2nc(N(C)C)no2)CC1` (stereo not shown) [6-F05, 2-chloro-1-{4-[3-(dimethylamino)-1,2,4-oxadiazol-5-yl]piperidin-1-yl}propan-1-one], the viability at 48 h, 25 µM turned out to be 108%.
Turning to `C=CC(=O)Nc1cc(NC(=O)[C@@H]2CSCN2C(=O)CC)ccc1F` [2-P18, (4R)-N-[4-fluoro-3-(prop-2-enamido)phenyl]-3-propanoyl-1,3-thiazolidine-4-carboxamide], the viability at 48 h, 25 µM came out at 91.2%.
As for `C=CC(=O)N1CCC(OC2CCCC2)CC1` [1-L07, 1-[4-(cyclopentyloxy)piperidin-1-yl]prop-2-en-1-one], the viability at 48 h, 25 µM worked out at 96.8%.
Consider `C=CC(=O)Nc1ccc(C(N)=O)cc1C` [1-P06, 3-methyl-4-(prop-2-enamido)benzamide], for which the viability at 48 h, 25 µM came out at 84.8%.
As to `CC(Cl)C(=O)Nc1ccc([N+](=O)[O-])cc1` (stereo not shown) [4-I18, 2-chloro-N-(4-nitrophenyl)propanamide], the viability at 48 h, 25 µM was 86.7%.
`N#CC(=Cc1ccc(-c2cccc([N+](=O)[O-])c2)s1)C(=O)NC1CC1` [9-G18, 2-cyano-N-cyclopropyl-3-[5-(3-nitrophenyl)thiophen-2-yl]prop-2-enamide]: the viability at 48 h, 25 µM was 103%.
Under `N#CC(=Cc1ccccc1Cl)C(=O)NCc1ccccc1` [9-F13, N-benzyl-3-(2-chlorophenyl)-2-cyanoprop-2-enamide] stands 80.5%; under `CC(Cl)C(=O)N1CC(=O)Nc2cc(C(F)(F)F)ccc21` (stereo not shown) [4-N20, 4-(2-chloropropanoyl)-7-(trifluoromethyl)-1,2,3,4-tetrahydroquinoxalin-2-one], 82.1%.
Turning to `C=CS(=O)(=O)Nc1ccccc1` [10-C07, N-phenylethene-1-sulfonamide], the viability at 48 h, 25 µM is 30.8%.
Under `CC(Cl)C(=O)Nc1cccc2ncccc12` (stereo not shown) [4-M10, 2-chloro-N-(quinolin-5-yl)propanamide] stands 97.4%; under `C=CC(=O)NCCC(=O)N1CCCN(C(=O)c2ccccc2F)CC1` [2-D20, N-{3-[4-(2-fluorobenzoyl)-1,4-diazepan-1-yl]-3-oxopropyl}prop-2-enamide], 93.7%; under `CC(Cl)C(=O)NC1CCN(S(C)(=O)=O)C1` (stereo not shown) [7-I15, 2-chloro-N-(1-methanesulfonylpyrrolidin-3-yl)propanamide], 94.9%.
For `C=CC(=O)N1CCN(c2nc3ccccc3o2)CC1` [1-K05, 1-[4-(1,3-benzoxazol-2-yl)piperazin-1-yl]prop-2-en-1-one], the viability at 48 h, 25 µM turned out to be 75.6%.
Take `COCc1noc(CN2CCN(C(=O)C(C)Cl)CC2)n1` (stereo not shown) [7-I06, 2-chloro-1-(4-{[3-(methoxymethyl)-1,2,4-oxadiazol-5-yl]methyl}piperazin-1-yl)propan-1-one]: the viability at 48 h, 25 µM was found to be 88.7%.
Consider `C=CC(=O)N1CCCC1c1c(C)nn(CC(C)C)c1Cl` (stereo not shown) [1-F19, 1-{2-[5-chloro-3-methyl-1-(2-methylpropyl)-1H-pyrazol-4-yl]pyrrolidin-1-yl}prop-2-en-1-one], for which the viability at 48 h, 25 µM stood at 119%.
As for `CCOc1ccc(S(=O)(=O)N2CCN(C(=O)CCl)CC2)cc1` [4-P15, 2-chloro-1-[4-(4-ethoxybenzenesulfonyl)piperazin-1-yl]ethan-1-one], the viability at 48 h, 25 µM came out at 0.587%.
`C=CC(=O)NCc1cc(C2CC2)nn1C` [1-L10, N-[(3-cyclopropyl-1-methyl-1H-pyrazol-5-yl)methyl]prop-2-enamide]: the viability at 48 h, 25 µM came to 92.5%.
Take `Cc1ccc(CNC(=O)c2ccccc2NC(=O)CCl)cc1` [4-H21, 2-(2-chloroacetamido)-N-[(4-methylphenyl)methyl]benzamide]: the viability at 48 h, 25 µM amounted to 105%.
Next, `C=CC(=O)N1CCCCC1c1nc2ccccc2n1C` (stereo not shown) [3-F04, 1-[2-(1-methyl-1H-1,3-benzodiazol-2-yl)piperidin-1-yl]prop-2-en-1-one]: 84.2%.
As for `Cc1cc(C=C(C#N)C(=O)Nc2ccncc2)c(C)n1C1CC1` [8-K14, 2-cyano-3-(1-cyclopropyl-2,5-dimethyl-1H-pyrrol-3-yl)-N-(pyridin-4-yl)prop-2-enamide], the viability at 48 h, 25 µM worked out at 71.6%.
Consider `CC(Cl)C(=O)N(C)Cc1cn(C)nc1C(F)(F)F` (stereo not shown) [7-M04, 2-chloro-N-methyl-N-{[1-methyl-3-(trifluoromethyl)-1H-pyrazol-4-yl]methyl}propanamide], for which the viability at 48 h, 25 µM is 91.6%.
With `O=C1C=CC(=O)N1c1cc([N+](=O)[O-])ccc1Cl` [10-H15, 1-(2-chloro-5-nitrophenyl)-2,5-dihydro-1H-pyrrole-2,5-dione], the viability at 48 h, 25 µM worked out at 126%.
Under `C=CC(=O)NC1(c2ncon2)CC1` [1-A05, N-[1-(1,2,4-oxadiazol-3-yl)cyclopropyl]prop-2-enamide] stands 68.7%; under `C=CC(=O)NC1(c2cccc(F)c2)CCOCC1` [1-M04, N-[4-(3-fluorophenyl)oxan-4-yl]prop-2-enamide], 71.1%.
